# Results as given in US20090035306A1 (KALYPSYS, INC., priority 2006, published 2009).
# Key:
# [1] = tested on: Mice; experiment: Glucose-stimulated insulin secretion (GTT/insulin test, insulin ELISA); assay type: in vivo, mouse; settings: 30 mg/kg; for Plasma Insulin, AUC, Mean: glucose-stimulated insulin secretion, in ng·min/mL (unit assumed)
# Method: (§1) Vehicle is CMC-Tween: 0.5% CMC+0.25% Tween 20 at an appropriate ml/kg. Dextrose dose per mouse=2 g dextrose/kg made from 0.5 g/ml stock dextrose solution. Compound 1 dose per mouse=30 mg/kg in CMC/Tween vehicle made from 4 mg/mL stock solution by adding 50 μL DMSO to 20 mg Compound 1, stirring to make a paste, adding 1 ml CMC/Tween with stirring, sonicating for 8 minutes on energy 05, and adjusting to 5 ml with CMC/Tween.
# Mice (5 per group) were fasted at 6 am for an experiment at noon. Blood glucose was measured from tail nick blood using an Accucheck—Compact Monitoring Kit (Roche Diagnostics, Indianapolis Ind.). Baseline (time=−15 min) blood glucose concentration was determined for all mice and tail nick blood samples were collected. 2 g/kg dextrose (Hospira, Lake Forest, Ill.) was administered orally at time 0. […] Terminal blood samples were collected from portal vein draws in three mice at t=20. Blood plasma was harvested from blood collected in EDTA microvettes by centrifugation (10 min at […]). Plasma was stored in −80 C freezer to be analyzed for other chemistry measurements.
# A Mercodia ultrasensitive mouse insulin ELISA kit (Mercodia AB, Uppsala, Sweden) was used in a 96-well coated plate. All reagents and samples were brought to room temperature before use, Calibrator concentrations were 0.07, 0.13, 0.25, 0.63, 1.9, 5.2, 13.0, and 64.0 μg/L, and a calibration curve was prepared for each assay run. To 25 μL calibrator 0 in each well was added 5 μL calibrators and 5 μL of samples/standards in duplicate, then 50 μL dilute enzyme conjugate 11× in enzyme conjugate buffer. This was incubated on a shaker for 2 hours at room temperature (18-25° C.), and each well was washed 5 times in 350 μL wash buffer and aspirated completely. After final wash, plate was inverted and tapped firmly against absorbent paper. 200 μL substrate TMB was added to each well and incubated for 30 minutes. 50 μL stop solution was added to each well, and the plate was placed on the shaker for about 5 seconds to ensure mixing of substrate and stop Solution. Absorbance was measured at 450 nm.
# [2] = biological target: T1, human TGR5 (Homo sapiens, UniProt Q8TDU6); experiment: cAMP production assay in HEK293 cells stably expressing TGR5 (LANCE TR-FRET); assay type: cell-based; settings: 30 minutes stimulation, read-out: cAMP Production in 293-TGR5 Cells EC50
# T1 construct: expressed in transfected cells
# T1 sequence (Q8TDU6 1-330): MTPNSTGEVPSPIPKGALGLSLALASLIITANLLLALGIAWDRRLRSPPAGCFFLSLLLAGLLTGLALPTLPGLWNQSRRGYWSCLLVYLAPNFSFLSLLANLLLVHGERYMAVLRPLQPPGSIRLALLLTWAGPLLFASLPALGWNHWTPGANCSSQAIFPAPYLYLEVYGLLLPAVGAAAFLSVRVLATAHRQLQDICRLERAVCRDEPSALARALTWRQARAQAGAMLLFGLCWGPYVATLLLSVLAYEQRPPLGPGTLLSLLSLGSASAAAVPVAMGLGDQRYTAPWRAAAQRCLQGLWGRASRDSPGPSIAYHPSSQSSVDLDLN
# Outline: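 HEK293 cells stably transfected with human TGR5, incubated overnight in DMEM with 0.1% FBS, then given IBMX (1 mM final) and stimulated with compounds for 30 minutes. cAMP measured by LANCE TR-FRET after 1-7 h detection at room temperature. EC50 values reported as ≦10 μM (+) or >10 μM (−).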
# [3] = tested on: Mice; experiment: Glucose tolerance test (GTT), glucose disposal; assay type: in vivo, mouse; settings: 30 mg/kg
# Method: as §1
# Glucose Tolerance Test (GTT)/Insulin Test
# Mice (5 per group) were fasted at 6 am for an experiment at noon. Blood glucose was measured from tail nick blood using an Accucheck—Compact Monitoring Kit (Roche Diagnostics, Indianapolis Ind.). Baseline (time=−15 min) blood glucose concentration was determined for all mice and tail nick blood samples were collected. 2 g/kg dextrose (Hospira, Lake Forest, Ill.) was administered orally at time 0. Blood samples were collected from the following mice via tail nick blood draw (˜100 μL) into EDTA microtainer tubes at the following time points: −15, 0, 3, 6, 9, 12, 15, 20, 30 and 120 min. Terminal blood samples were collected from portal vein draws in three mice at t=20. Blood plasma was harvested from blood collected in EDTA microvettes by centrifugation (10 min at […]). Plasma was stored in −80 C freezer to be analyzed for other chemistry measurements.
# [4] = tested on: Mice; experiment: Glucose tolerance test (GTT), glucose disposal; assay type: in vivo, mouse; settings: 30 mg/kg, 2 g/kg dextrose orally at time 0, time 60 min
# [5] = 2 g/kg dextrose orally at time 0, time 0 min
# [6] = 2 g/kg dextrose orally at time 0, time 3 min
# [7] = 2 g/kg dextrose orally at time 0, time 6 min
# [8] = 2 g/kg dextrose orally at time 0, time 9 min
# [9] = 2 g/kg dextrose orally at time 0, time 12 min
# [10] = 2 g/kg dextrose orally at time 0, time 15 min
# [11] = 2 g/kg dextrose orally at time 0, time 20 min
# [12] = 2 g/kg dextrose orally at time 0, time 30 min
# [13] = 2 g/kg dextrose orally at time 0, time 120 min
# [14] = 2 g/kg dextrose orally at time 0, time −15 min (baseline)
smiles,measurement,setting,value
O=c1c2ccccc2nc(-c2ccc(F)cc2)n1NCc1ccc(Br)cc1 [Example 1],"Plasma Insulin, Mean",[1]; [5],1.56 ng/mL
same,"Plasma Insulin, Mean",[1]; [6],2.35 ng/mL
same,"Plasma Insulin, Mean",[1]; [7],3.24 ng/mL
same,"Plasma Insulin, Mean",[1]; [8],3.94 ng/mL
same,"Plasma Insulin, Mean",[1]; [9],4.18 ng/mL
same,"Plasma Insulin, Mean",[1]; [10],4.05 ng/mL
same,"Plasma Insulin, Mean",[1]; [11],3.79 ng/mL
same,"Plasma Insulin, Mean",[1]; [12],1.82 ng/mL
same,"Plasma Insulin, Mean","[1]; 2 g/kg dextrose orally at time 0, time 60 min",1.23 ng/mL
same,"Plasma Insulin, Mean",[1]; [13],1.17 ng/mL
same,"Plasma Insulin, Mean",[1]; [14],1.78 ng/mL
same,"Plasma Insulin, AUC, Mean",[1]; 0-15 min,35.15
same,"Plasma Insulin, AUC, Mean",[1]; 0-30 min,68.39
same,EC50,[2],≤ 10 µM
same,"Plasma Glucose, Mean",[3]; [5],220.4 mg/dL
same,"Plasma Glucose, Mean",[3]; [6],272.2 mg/dL
same,"Plasma Glucose, Mean",[3]; [7],332.6 mg/dL
same,"Plasma Glucose, Mean",[3]; [8],398.2 mg/dL
same,"Plasma Glucose, Mean",[3]; [9],427.2 mg/dL
same,"Plasma Glucose, Mean",[3]; [10],430.0 mg/dL
same,"Plasma Glucose, Mean",[3]; [11],425.9 mg/dL
same,"Plasma Glucose, Mean",[3]; [12],354.6 mg/dL
same,"Plasma Glucose, Mean",[3]; [13],213.2 mg/dL
same,"Plasma Glucose, Mean",[3]; [14],170.0 mg/dL
same,"Plasma Glucose, AUC, Mean","[3]; glucose tolerance test, 0-120 min",16400
same,"Plasma Glucose, Mean",[4],294.2 mg/dL
